Data from patent publication EP0502205A1, “CHALCONE DERIVATIVE AND ULTRAVIOLET SCREENING COSMETIC” (NIPPON HYPOX LABORATORIES INCORPORATED, priority 1990, dated 1992).

Key:
[1] = Ultraviolet light absorption maximum and absorbance in ethanol solution; type: physicochemical; conditions: for Absorbance 300 nm / Absorbance 350 nm / Absorbance UVmax: concentration of 10 μg/ml in an ethanol solution; for Absorbance UVmax: at UVmax; for UVmax: ultraviolet light absorption maximum
[2] = test system: lipid peroxidation reaction of liver microsome; assay: Cell protection activity test (inhibition of lipid peroxidation, thiobarbituric acid method); type: biochemical, rat; conditions: 37° C 20 minutes, n = 3 - 5; for Inhibition ratio 10^-4M concentration: final concentration 10^-4M, 100 µM; for Inhibition ratio 10^-5 concentration: 10 µM
Experimental: Cell impairment caused by a radical reaction of an organic compound is known as one of optical affections on the skin.
First, rat liver microsome was obtained by a conventional method, and then, suspended in 1.15 % KCl to prepare a microsome suspension.
Then, the above microsome suspension in an amount of 2 mg as protein was added to a tris-HCl buffer (pH 7.4) containing NADPH (final concentration 0.2 mM), ADP (final concentration 1 mM) and FeCl₃ (final concentration 10 µM). And, 10 µl of a dimethylformamide (DMF) solution of a test compound was added so that the total amount was 1 ml, and the resultant mixture was warmed at 37° C for 20 minutes. The test compound was added such that the final concentration became 10⁻⁴M or 10⁻⁵M.
Thereafter, the amount of formed peroxidation lipid was measured by a thiobarbituric acid method. The inhibition activity of the test compound is expressed in terms of an inhibition ratio (%) in comparison with a control group. […] In addition, in the control group, 10 µl of DMF was used in place of 10 µl of the DMF solution of the test compound.

[3] = test system: inflammation induced by an egg-white albumin-adjuvant system; assay: Anti-inflammatory activity test (swelling of subplantar region of right hind paw); type: in vivo, SD rats; conditions: oral, 10 mg/weight-kg, 0.5 hour before inflammation inducer; measured 0.5, 1, 2, 3 and 4 hours after; Fig. 1
Experimental: As a test group, a comparison group and a control group, 5 male SD rats weighing 180 to 220 g were used per group. Each rat was measured for a size (volume) of the subplantar region of the right hind paw.
This aluminum hydroxide was used as an adjuvant. Per rat, a solution obtained by suspending 4 mg of the adjuvant and 0.2 mg of egg-white albumin in 0.1 ml of pertussis vaccine was prepared as an inflammation inducer.
0.5 Hour after the administration, the inflammation inducer was intracutaneously administered into the subplantar region of the right hind paw of each rat to induce swelling.
Then, 0.5, 1, 2, 3 and 4 hours after the administration of the inflammation inducer, each rat was measured for a size (volume) of the subplantar region of the right hind paw by volumetry. […] [formula] Ps: Measurement value of volume of subplantar region at a measurement time (average of the group). Po: Measurement value of volume of subplantar region before administration of inflammation inducer (average of the group).
Each rat of the control group was orally administered with a 10 % Nikkol-containing physiological saline solution in place of the 10 % Nikkol-containing physiological saline solution containing 2',4'-dihydroxychalcone. Thereafter, the same procedures as those for the test group were repeated to determine the swelling as a group.

[4] = test system: rat abdominal cavity exudate mast cell; assay: Anti-allergic activity test (inhibition of free histamine from mast cell, concanavalin A as freeing agent); type: cell-based, SD rat; conditions: 10 min, concentration of 0.03 mM, n = 5, read-out: free histamine inhibition ratio
Experimental: At first, an abdominal cavity exudate mast cell of an SD rat was obtained by a conventional method. Then, the above-obtained abdominal cavity mast cell was floated on a Locke solution, and a test substance in a predetermined concentration and phosphatidylcerine (final concentration 3 µg/ml) were added. The mixture was warmed up to 37° C, and after concanavalin A as a freeing agent was added, the mixture was maintained at 37° C for 10 minutes. Thereafter, the reaction solution was centrifugally separated to a sediment portion and a supernatant portion, and the histamine amount of each of these portions was quantitatively determined by an orthophthalaldehyde method. In addition, as a test substance, a dimethylformamide solution (final concentration 0.03 mM) of 3 mM 2',4'-dihydroxychalcone and a DMF solution (final concentration 0.03 mM) of an anti-inflammatory drug (Azelastine) were used. The free histamine ratio was calculated on the basis of the following equation. In control, the solvent alone was added. [formula] Ps: Histamine amount in sediment portion Pr: Histamine amount in supernatant portion. The free histamine inhibition ratio of the test substance was calculated on the basis of the following equation. [formula] S: Free histamine ratio when test substance is added. C: Free histamine ratio when no test substance is added (control). […]

sunburn [5] = assay: Ultraviolet screening test (ointment on skin exposed to direct sunlight); type: in vivo, normally healthy persons
sunburn [6] = assay: as above; type: in vivo, normally healthy persons; remark: listed apart in the source
Experimental: 10 Milligrams of the ointment containing 1 wt.% of the known chalcone derivative in Example 14, obtained in Example 15, 10 mg of an ointment containing 1 wt.% of p-aminobenzoic acid as a control, obtained in the same manner as in Example 15 except for the use of p-aminobenzoic acid in place of the above known chalcone derivative (to be abbreviated as AO in Table 3 which will follow), and 10 mg of the same hydrophilic ointment as that used in Example 15 (to be abbreviated as HO in Table 2 which will follow) were respectively applied to the femoral region of each of normally healthy persons (10 persons) such that these became circular forms having nearly the same size. Then, these applied portions were exposed to direct sunlight outdoors in fine weather for 2 hours and 30 minutes.
After the exposure, each applied portion was visually observed. The portions where clear sunburn was recognized were taken as +, the portions where slight sunburn was recognized were taken as ±, and the portions where almost no change was recognized were taken as -. The test substances were so evaluated on their ultraviolet screening effects.
The ointment containing 1 wt.% of the novel chalcone derivative of Example 1, obtained in Example 15, the ointment containing 1 wt.% of the novel chalcone derivative of Example 1, the ointment containing 1 wt.% of the novel chalcone derivative of Example 2, the ointment containing 1 wt.% of the novel chalcone derivative of Example 4, the ointment containing 1 wt.% of the novel chalcone derivative of Example 6 and the ointment containing 1 wt.% of the known chalcone derivative of Example 9 were respectively similarly tested on their ultraviolet screening effects. However, the exposure time outdoors in fine weather was set for 1 hour. […]

[7] = test system: notal skins of Hartley guinea pigs; assay: Safety test (ointment on skin under adhesive plaster, histological observation); type: in vivo; conditions: 10 mg ointment containing 5 wt.%, covered with adhesive plaster for 24 hours or 72 hours
Experimental: 10 milligrams of the ointment containing 5 wt.% of the known chalcone derivative of Example 14, obtained in Example 16, was applied to the notal skins of Hartley guinea pigs, and the applied portions were covered with an adhesive plaster for 24 hours or 72 hours.

[8] = 10 mg ointment containing 1 wt.%, femoral region, 10 persons, direct sunlight 2 hours and 30 minutes
[9] = ointment containing 1 wt.%, exposure time outdoors 1 hour

| Absorbance 300 nm [1] | Absorbance 350 nm [1] | Absorbance UVmax [1] | UVmax [1] | Compound | Inhibition ratio 10^-4M concentration [2] | inhibition of swelling [3] | inhibition at 30 µM [4] | numbers of persons + (Almost no change) (sunburn [5]; [8]) | numbers of persons + (Clear sunburn was recognized) (sunburn [6]; [8]) | numbers of persons - (Slight sunburn was recognized) (sunburn [6]; [8]) | ultraviolet absorption spectrum (in words) ([1]; Fig. 2) | Inhibition ratio 10^-5 concentration [2] | histological comparison of skin of applied portion and skin of normal portion [7] | numbers of persons + (Almost no change) (sunburn [5]; [9]) | numbers of persons + (Clear sunburn was recognized) (sunburn [6]; [9]) |
| --- | --- | --- | --- | --- | --- | --- | --- | --- | --- | --- | --- | --- | --- | --- | --- |
| 0.30~0.45 | 0.85~1.00 | 0.90~1.00 | 355 nm | O=C(/C=C/c1ccc2c(c1)OCO2)c1ccc(O)cc1 [Example 12] | 90 % or more | – | – | – | – | – | – | – | – | – | – |
| 0.65~0.75 | 0.60~0.70 | 0.70~0.80 | 306 nm | O=C(/C=C/c1ccccc1)c1ccc(O)cc1O [Example 14, 2',4'-dihydroxychalcone] | 90 % or more | significantly inhibited swelling | 56.9 ± 12.8% | 9 persons | 0 persons | 1 persons | has an absorption band in most of the wavelength regions of Dorno's ray and long-wavelength ultraviolet light | 90 % or more | no difference between these two portions | – | – |
| 0.60~0.75 | 0.50~0.65 | 0.60~0.80 | 305 nm | O=C(/C=C/c1ccc(C(F)(F)F)cc1)c1ccc(O)cc1O [Example 5] | 90 % or more | – | – | – | – | – | – | 15% | – | – | – |
| 0.20~0.40 | 0.60~0.75 | 0.80~0.95 | 364 nm | CCOc1ccc(/C=C/C(=O)c2ccc(O)cc2O)cc1 [Example 6] | 90 % or more | – | – | – | – | – | – | 30% | – | 3 persons | 0 persons |
| 0.90~1.00 | 0.45~0.55 | 0.90~1.20 | 318 nm | O=C(/C=C/c1cccc(F)c1)c1ccc(O)cc1 [Example 2] | 90 % or more | – | – | – | – | – | – | 16% | – | 4 persons | 0 persons |
| 0.35~0.50 | 0.85~1.00 | 1.00~1.15 | 365 nm | O=C(/C=C/c1ccc(O)c(O)c1)c1ccc(O)cc1 [Example 13] | 90 % or more | – | – | – | – | – | – | 84% | – | – | – |
| – | – | – | – | COc1ccc2c(c1)c(CC(=O)O)c(C)n2C(=O)c1ccc(Cl)cc1 [indomethacin, reference compound] | – | significantly inhibited swelling | – | – | – | – | – | – | – | – | – |
| 0.55~0.70 | 0.85~1.10 | 1.10~1.30 | 365 nm | CCOc1ccccc1/C=C/C(=O)c1ccc(O)cc1O [Example 7] | 90 % or more | – | – | – | – | – | – | 90 % or more | – | – | – |
| 0.85~1.00 | 1.15~1.30 | 1.20~1.40 | 322 nm | O=C(/C=C/c1ccc(Cl)cc1)c1ccc(O)cc1O [Example 10] | 90 % or more | – | – | – | – | – | – | 32% | – | – | – |
| 0.70~0.85 | 0.80~0.95 | 0.80~1.10 | 320 nm | O=C(/C=C/c1ccccc1F)c1ccc(O)cc1O [Example 3] | 90 % or more | – | – | – | – | – | – | 90 % or more | – | – | – |
| 0.40~0.55 | 0.90~1.00 | 0.80~1.10 | 352 nm | Cc1ccc(/C=C/C(=O)c2ccc(O)cc2O)cc1 [Example 9] | 90 % or more | – | – | – | – | – | – | 25% | – | 4 persons | 0 persons |
| 1.40~1.50 | 0.75~0.85 | 1.80~2.10 | 318 nm | O=C(/C=C/c1ccccc1)c1ccc(O)cc1 [Example 8] | 90 % or more | – | – | – | – | – | – | 64% | – | – | – |
| 0.50~0.65 | 0.60~0.70 | 0.55~0.70 | 346 nm | O=C(/C=C/c1ccc(F)cc1)c1ccc(O)cc1O [Example 4] | 90 % or more | – | – | – | – | – | – | 90 % or more | – | 4 persons | 0 persons |
| – | – | – | – | CN1CCCC(n2nc(Cc3ccc(Cl)cc3)c3ccccc3c2=O)CC1 (stereo not shown) [Azelastine, reference compound] | – | – | 20.8 ± 4.2% | – | – | – | – | – | – | – | – |
| 0.60~0.75 | 0.75~0.90 | 0.80~0.90 | 320 nm | O=C(/C=C/c1ccc([N+](=O)[O-])cc1)c1ccc(O)cc1O [Example 11] | 90 % or more | – | – | – | – | – | – | 62% | – | – | – |
| 0.70~0.85 | 0.70~0.85 | 0.80~0.95 | 317 nm | O=C(/C=C/c1cccc(F)c1)c1ccc(O)cc1O [Example 1, 2',4'-dihydroxy-3-fluoro-chalcone] | 90 % or more | – | – | – | – | – | – | 90 % or more | no histological difference | 4 persons | 0 persons |
